In one test the test system is TERRA in LOX cells. The test can be described thus: TERRA levels by RNA dot blot and Northern blot in LOX cells. Format: cell-based, human. Conditions: 2 μM, 3 days; for accumulation of TERRA as a shorter form: Northern blot.
Another test has as its system LOX cells. The test can be described thus: Metaphase telomere FISH in LOX cells. Format: cell-based, human. Conditions: 2 μM, 3 days. Here is the method:
Mei et al, 2020 TERRA Requires TRF2 GAR Domain
Instruments, Inc., Melville, NY) with ImagePro Plus software (Media Cybernetics, Silver Spring, MD) for image processing. Cells with > 5 53BP1/γH2AX foci co-localizing with telomere DNA foci were scored as positive for TIF. The quantification was generated from at least three independent Immuno-FISH experiments.
FISH analysis on metaphase spreads was performed as previously described 5. Briefly, LOX cells were treated with indicated chemicals (2 µM) for 3 days in a 37 °C CO2 incubator. LOX TRF2∆B cells were cultured in the absence (-) or presence (+) of 1 µg/ml doxycycline for 20 days in 37 °C incubator. Colcemid (0.1 mg/ml; GIBCO) was then added to cells and incubated for 4 hrs to accumulate mitotic cells. Cells were collected by trypsinization and suspended in 75 mM KCl hypotonic solution at 37 °C for 25 min before fixation in fresh 3:1 methanol/acetic acid for 4-5 times. Fixed cells were dropped onto cold, wet glass microscope slides and allowed to dry slowly in a humid environment. Metaphase chromosome spreads were fixed in 4% paraformaldehyde in 1x PBS for 3 min, dehydrated in ethanol series [70%, 95%,100% (vol/vol)], and air-dried. Slides were denatured for 5 min at 81 °C in hybridization mix [70% (vol/vol) formamide, 10 mM Tris·HCl (pH 7.2), and 0.5% blocking solution (Roche)] containing telomeric PNA-Cy3-(CCCTAA)3 probe (PNA Bio). […]

For test [1], the system named is TeloDNA (5'-fluorescein) (DNA, G4) TTAGGGTTAGGGTTAGGGTTAGGG
The test can be described thus: fluorescence polarization. Conditions: 150 mM KCl, NaCl or LiCl (salt not specified); 20 mM HEPES; 20 mM HEPES pH 7.5, room temperature, tRNA competitor added, 10 nM probe; apparent.

Test [2] relates to TeloDNA (unlabelled) (DNA, G4) TTAGGGTTAGGGTTAGGGTTAGGG
In words: fluorescence polarization, displacement of TRF2 GAR peptide. Conditions: 150 mM KCl, NaCl or LiCl (salt not specified); 20 mM HEPES; 20 mM HEPES pH 7.5, room temperature; FITC-TRF2 GAR peptide 10 nM displaced; 5 μM oligo.

The target of another test is G4 TeloDNA. In words: FP assay, compound binding to 5′ fluorescein-labeled TeloDNA. The conditions noted are these: 10 nM fluorescein-labeled probe, 3 independent experiments. Here is the method: (§1) All the nucleic acids, peptides and chemicals were dissolved in buffer containing 20 mM HEPES pH7.5, 150 mM salt (KCl, NaCl, LiCl) at the stock concentration of 1 mM. For peptide and nucleic acid interactions, 25μL of each nucleic acids with a sequential twofold dilutions starting from 50 μM was added into each well of 96-well plate followed by adding 25μL of 10 nM FITC labeled TRF2 peptide. For compounds and nucleic acid interactions, 20μL of each compounds with a sequential twofold dilutions starting from 50 μM were added into each well of 96-well plate followed by adding 5μL of 20 ng/mL tRNA and 25μL of 10 nM FAM labeled nucleic acids. For inhibition assay, 5μL FITC labeled TRF2 GAR peptide (10 nM final concentration) and 10 μL oligos (5 μM final concentration) were mixed, followed by adding 5μL of each compound with a sequential twofold dilutions starting from 50 μM into each well of 384-well plate. All components were mixed thoroughly, and the plate was incubated at room temperature for 1 h before placing in an Envision Plate Reader for reading at 495/520 nm. All data curves were fitted using Prism 8.0.

Test [3] deals with TeloDNA antisense (5'-fluorescein) (DNA, single strand) CCCTAACCCTAACCCTAACCCTAA
The test can be described thus: fluorescence polarization. Conditions: 150 mM salt (KCl, NaCl or LiCl; which not stated); 20 mM HEPES pH 7.5, room temperature, tRNA competitor; dilutions from 50 μM compound.

In the next test the target is TERRA and TRF2 complex. In words: FP inhibition assay, TRF2 GAR binding to TERRA. The conditions noted are these: for IC50: FP, 10 nM peptide, 5 μM oligo; for Selectivity Ratio IC50 (Tel DNA/TERRA): ratio of FP IC50 values. Here is the method:
as §1

On to `CN(C)c1ccc(Nc2c3ccc(NC(=O)CCN4CCCC4)cc3nc3cc(NC(=O)CCN4CCCC4)ccc23)cc1` [BRACO-19], for which the “accumulation of TERRA as a shorter form” value with TERRA in LOX cells is on record as “not observed”. Moreover, the “frequency of telomere aberrations incl. fragile telomere doublets” value in the test with LOX cells is recorded as “increased the frequency of telomere aberrations”. Moreover, the EC50 (in test [1]; at G4 TeloDNA) was 3.9 µM in each case. Besides, the half-maximal inhibitory concentration (IC50) in test [2] is 0.04 µM; at TERRA and TRF2 complex it was 240 nM. Also, in test [3], the binding result is “no”. The “Selectivity Ratio IC50 (Tel DNA/TERRA)” value in the test on TERRA and TRF2 complex is 0.17.

With `CCc1c(C)c2cc3nc(cc4nc(cc5c(CC)c(C)c(cc1[nH]2)n5C)C(C)=C4CCC(=O)O)C(CCC(=O)O)=C3C` [NMM, N-methyl mesoporphyrin IX], in the test on TERRA in LOX cells, the “accumulation of TERRA as a shorter form” value is “accumulated as a shorter form”. The “total TERRA levels relative to PP control” value in the test on TERRA in LOX cells (RNA dot blot and Northern blot) is on record as “reduced total TERRA levels”. Also, the “frequency of telomere aberrations incl. fragile telomere doublets” value with LOX cells is on record as “increased the frequency of telomere aberrations”. The EC50 (in test [1]; on G4 TeloDNA) was 4.8 µM throughout. Moreover, the IC50 in test [2] is 1.0 µM; at TERRA and TRF2 complex it was 420 nM. The binding entry in test [3] is reported as “no”. The “Selectivity Ratio IC50 (Tel DNA/TERRA)” value with TERRA and TRF2 complex is on record as 2.38.

As usually defined, the EC50 is the concentration needed to bring the measured effect to its halfway point. A word on the IC50: it is the concentration that gives 50% inhibition.

The values above are taken from article PMC7876106 (Scientific Reports, 2021).
